According to paper PMC7279002, “Novel 3′-Substituted-1′,2′,4′-Oxadiazole Derivatives of 18βH-Glycyrrhetinic Acid and Their O-Acylated Amidoximes: Synthesis and Evaluation of Antitumor and Anti-Inflammatory Potential In Vitro and In Vivo” (International Journal of Molecular Sciences, 2020):
Where two headings read alike, the source gives them in different places. Blank lines part the entries; values can stand above or below the compound they belong to.

How the values were obtained:
[1] = test system: murine melanoma B16; test: MTT cytotoxicity assay, 48 h; type: cell-based; conditions: for IC50: MTT, 48 h; for Selectivity index: B16: IC50 in hFF3 / IC50 in B16
Procedure: (§1) On the first step of the biological evaluation of novel GA derivatives 3a-h, 4a-h, and 5a-h, we analyzed their cytotoxicity in a panel of cultured mammalian cells, including human cervical carcinoma HeLa and KB-3-1, human duodenal carcinoma HuTu-80, human lung adenocarcinoma A549, murine melanoma B16 cell lines, and nontransformed human fibroblasts hFF3. The cells were treated with derivatives for 48 h and cell viability was evaluated by 3-(4, 5-dimethylthiazol-2-yl)-2, 5-diphenyltetrazolium bromide (MTT) assay. Since the studied compounds contain two types of functional groups at position 3-acetoxy- or the hydroxyl-group, 3-acetoxy-GA 1 and GA-Me were used as references. Additionally, hierarchical clustering of cytotoxic data was carried out in order to reveal groups of compounds with similar cytotoxic profiles (Figure 2A).
(§2) Human cervical carcinoma HeLa and KB-3-1 cells, human duodenal carcinoma HuTu-80 cells, and human lung adenocarcinoma A549 cells were obtained from the Russian Culture Collection (Institute of Cytology, RAS, St. Petersburg, Russia). Melanoma B16-F10 (hereafter, melanoma B16) cells were obtained from the Cell Culture Bank of the Blokhin National Medical Oncology Research Center (Moscow, Russia). Nonmalignant fibroblasts hFF3 and RAW264.7 macrophages were kindly provided by Dr. Olga A. Koval (Institute of Chemical Biology and Fundamental Medicine, SB RAS, Novosibirsk, Russia) and Prof. Dmitry Kuprash (Engelhardt Institute of Molecular Biology, RAS, Moscow, Russia), respectively. The cells were cultured in DMEM (Sigma-Aldrich Inc., St. Louis, MO, USA) supplemented with 10% (v/v) heat-inactivated fetal bovine serum (FBS) (BioloT, St. Petersburg, Russia) and antibiotic–antimycotic solution (100 U/mL penicillin, 100 µg/mL streptomycin, 0.25 µg/mL amphotericin). […] The cells were incubated at 37 °C in a humidified 5% CO2-containing air atmosphere (hereafter referred to as standard conditions). GA derivatives were dissolved in DMSO (stock solutions: 10 mM) and stored at −20 °C prior to use.
(§3) Cells were seeded in tetra- or pentaplicates in 96-well plates at a density of 10^4 (tumor cells and […] fibroblasts) or 10^5 (RAW264.7 cells) cells per well. Cells were incubated under standard conditions for 24 h, followed by their treatment with the investigated derivatives (0.5–50 µM) or corresponding concentrations of DMSO (control) for a further 48 h (tumor cells and fibroblasts) or 24 h (RAW264.7 cells). At the end of incubation period, 10 µL of MTT solution was added to the cells (final concentration: 0.5 mg/mL) and plates were incubated for an additional 2 h under standard conditions. Then, the MTT-containing medium was aspirated and formazan crystals formed in living cells were solubilized with 100 µL of DMSO. The absorbance of each well was read at test and reference wavelengths of 570 and 620 nm, respectively, on a Multiscan RC plate reader (Thermo LabSystems, Helsinki, Finland). The IC50 values (the concentration of compounds leading to a decrease of A570 to 50% of A570^control) were calculated by extrapolation of the dose–response curves. […] A heatmap of SI values was constructed by Microsoft Excel 2010.

[2] = test system: human cervical carcinoma KB-3-1; test: MTT cytotoxicity assay, 48 h; type: cell-based; conditions: for IC50: MTT, 48 h, read-out: IC50, µM Cervix KB-3-1; for Selectivity index: KB-3-1: IC50 in hFF3 / IC50 in KB-3-1
Procedure: as §1, §2, §3

[3] = test system: human lung adenocarcinoma A549; test: MTT cytotoxicity assay, 48 h; type: cell-based; conditions: for IC50: MTT, 48 h; for Selectivity index: A549: IC50 in hFF3 / IC50 in A549
Procedure: as §1, §2, §3

[4] = test system: human cervical carcinoma HeLa; test: MTT cytotoxicity assay, 48 h; type: cell-based; conditions: for IC50: MTT, 48 h, read-out: IC50, µM Cervix HeLa; for Selectivity index: HeLa: IC50 in hFF3 / IC50 in HeLa
Procedure: as §1, §2, §3

[5] = test system: nontransformed human fibroblasts hFF3; test: MTT cytotoxicity assay, 48 h; type: cell-based
Procedure: as §1, §2, §3

[6] = test system: human duodenal carcinoma HuTu-80; test: MTT cytotoxicity assay, 48 h; type: cell-based; conditions: for IC50: MTT, 48 h, read-out: IC50, µM Duodenum HuTu-80; for Selectivity index: HuTu-80: IC50 in hFF3 / IC50 in HuTu-80
Procedure: as §1, §2, §3

[7] = test system: HeLa, KB-3-1, HuTu-80, A549, B16 and hFF3 cells; test: MTT cytotoxicity, summary over the panel of cell lines; type: cell-based; conditions: for IC50: median over all tested cell lines, read-out: median IC50
Procedure: as §1, §3

[8] = Homo sapiens, HFF-3, read-out: IC50, µM Fibroblast hFF3

melting point: 129.5 to 129.9 °C
SMILES: CC1(C)C2CC[C@]3(C)C(C(=O)C=C4[C@@H]5C[C@@](C)(c6nc(-c7ccncc7)no6)CC[C@]5(C)CC[C@]43C)[C@@]2(C)CC[C@@H]1O (stereo partly drawn) [Compound 5h, 30-nor-3β-hydroxy-11-oxo-20-(3′-(pyridin-4′′-yl)-1′,2′,4′-oxadiazol-5′-yl)-18βH-olean-12-en]
IC50 ([1]; Mus musculus): > 50 µM | IC50 ([2]; Homo sapiens, KB 3-1): 4.9 ± 0.3 µM | Selectivity index: KB-3-1 [2]: > 10.2 | IC50 ([3]; Homo sapiens, A549): > 50 µM | IC50 ([4]; Homo sapiens, HeLa): 3.5 ± 0.1 µM | Selectivity index: HeLa [4]: > 14.3 | IC50 [5, 8]: > 50 µM | IC50 ([6]; Homo sapiens, HuTu80): 4.7 ± 0.4 µM | Selectivity index: HuTu-80 [6]: > 10.6

melting point: 227.8 °C (dec.)
SMILES: CC(C)(C)c1noc([C@@]2(C)CC[C@]3(C)CC[C@]4(C)C(=CC(=O)C5[C@@]6(C)CC[C@H](O)C(C)(C)C6CC[C@]54C)[C@@H]3C2)n1 (stereo partly drawn) [Compound 5d, 30-nor-3β-hydroxy-11-oxo-20-(3′-tert-butyl-1′,2′,4′-oxadiazol-5′-yl)-18βH-olean-12-en]
IC50 [7]: 16.5 µM | Selectivity index: B16 [1]: 1.9 | IC50 ([1]; Mus musculus): 11.3 ± 1.9 µM | IC50 ([2]; Homo sapiens, KB 3-1): 22.3 ± 3.7 µM | Selectivity index: KB-3-1 [2]: 1.0 | IC50 ([3]; Homo sapiens, A549): 23.5 ± 6.3 µM | Selectivity index: A549 [3]: 0.9 | IC50 ([4]; Homo sapiens, HeLa): 3.7 ± 0.9 µM | Selectivity index: HeLa [4]: 5.8 | IC50 [5, 8]: 21.6 ± 3.4 µM | IC50 ([6]; Homo sapiens, HuTu80): 8.8 ± 1.1 µM | Selectivity index: HuTu-80 [6]: 2.5

SMILES: COC(=O)[C@@]1(C)CC[C@]2(C)CC[C@]3(C)C(=CC(=O)[C@@H]4[C@@]5(C)CC[C@H](O)C(C)(C)[C@@H]5CC[C@]43C)[C@@H]2C1 [GA-Me, reference compound]
median SI ([7]; in all tumor cells): 10.9 | IC50 [7]: 1.1 µM | Selectivity index: B16 [1]: 10.9 | IC50 [1]: 0.9 ± 0.1 µM | Selectivity index: KB-3-1 [2]: 10.9 | IC50 [2]: 0.9 ± 0.1 µM | Selectivity index: A549 [3]: 8.2 | IC50 [3]: 1.2 ± 0.1 µM | Selectivity index: HeLa [4]: 6.1 | IC50 [4]: 0.9 ± 0.1 µM | IC50 ([5]; read-out: IC50, µM Fibroblast hFF3): 9.8 ± 1 µM | Selectivity index: HuTu-80 [6]: 10.9 | IC50 [6]: 1.6 ± 0.5 µM

SMILES: CC(=O)O[C@H]1CC[C@@]2(C)C(CC[C@]3(C)C2C(=O)C=C2[C@@H]4C[C@@](C)(C(=O)O/N=C(/N)c5cccnc5)CC[C@]4(C)CC[C@]23C)C1(C)C (some centres unmarked) [Compound 3g]
melting point: 149.7 °C (dec.) | Selectivity index: B16 [1]: 1.0 | IC50 ([1]; Mus musculus): 8.9 ± 1.1 µM | IC50 ([2]; Homo sapiens, KB 3-1): 10 ± 0.9 µM | Selectivity index: KB-3-1 [2]: 0.9 | IC50 ([3]; Homo sapiens, A549): 5.6 ± 0.9 µM | Selectivity index: A549 [3]: 1.5 | IC50 ([4]; Homo sapiens, HeLa): 6.1 ± 1 µM | Selectivity index: HeLa [4]: 1.4 | IC50 [5, 8]: 8.5 ± 0.3 µM | IC50 ([6]; Homo sapiens, HuTu80): 4.9 ± 0.3 µM | Selectivity index: HuTu-80 [6]: 1.7

SMILES: CC/C(N)=N\OC(=O)[C@@]1(C)CC[C@]2(C)CC[C@]3(C)C(=CC(=O)C4[C@@]5(C)CC[C@H](OC(C)=O)C(C)(C)C5CC[C@]43C)[C@@H]2C1 (some centres unmarked) [Compound 3b]
melting point: 120 °C (dec.) | Selectivity index: B16 [1]: 0.4 | IC50 ([1]; Mus musculus): 7.2 ± 0.6 µM | IC50 ([2]; Homo sapiens, KB 3-1): 6.7 ± 0.7 µM | Selectivity index: KB-3-1 [2]: 0.4 | IC50 ([3]; Homo sapiens, A549): 7.3 ± 3 µM | Selectivity index: A549 [3]: 0.4 | IC50 ([4]; Homo sapiens, HeLa): 3.3 ± 0.2 µM | Selectivity index: HeLa [4]: 0.9 | IC50 [5, 8]: 2.9 ± 0.3 µM | IC50 ([6]; Homo sapiens, HuTu80): 2.4 ± 0.2 µM | Selectivity index: HuTu-80 [6]: 1.2

SMILES: CC(=O)O[C@H]1CC[C@@]2(C)C(CC[C@]3(C)C2C(=O)C=C2[C@@H]4C[C@@](C)(C(=O)O)CC[C@]4(C)CC[C@]23C)C1(C)C (stereo partly drawn) [Compound 1, 3β-acetoxy-11-oxo-18βH-olean-12-en-29-oic acid, reference compound]
Selectivity index: B16 [1]: 1.2 | IC50 ([1]; Mus musculus): 11.5 ± 1.5 µM | IC50 ([2]; Homo sapiens, KB 3-1): 7.4 ± 0.6 µM | Selectivity index: KB-3-1 [2]: 1.8 | IC50 ([3]; Homo sapiens, A549): 15.9 ± 2.3 µM | Selectivity index: A549 [3]: 0.9 | IC50 ([4]; Homo sapiens, HeLa): 12.7 ± 1.1 µM | Selectivity index: HeLa [4]: 1.1 | IC50 [5, 8]: 13.6 ± 2.2 µM | IC50 ([6]; Homo sapiens, HuTu80): 2.9 ± 0.1 µM | Selectivity index: HuTu-80 [6]: 4.7
